Laboratory results as given in patent US20260234165A1, “MACROCYCLIC COMPOUNDS, PREPARATION METHOD THEREFOR, AND USE THEREOF” (GENFLEET THERAPEUTICS (SHANGHAI) INC., priority 2004, published 2026).
Read-outs that look alike come from different tables or passages of the source.

Tests used:
Type in all cases: cell-based, human
[1] = test system: p-ERK in NCI-H441 cells (KRAS G12V mutation); test: Cell p-ERK assay (HTRF) in NCI-H441 cells; details: NCI-H441 cells, 3 h compound incubation, HTRF p-ERK T202/Y204, read-out: H441 p-ERK IC50
Procedure, shortened: (§1)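 Seed 10000 AsPC-1 or 20000 NCI-H441 cells/well, overnight 37 °C/5% CO2. Cpd 3.16-fold series, 0.1% DMSO final, 3 h. Lyse 30 min, HTRF p-ERK (T202/Y204) Ab 4 h. IC50: 4-parameter fit of IR% normalised to DMSO and blank.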

NCI-H441 cells = test: 3D cell proliferation assay (CellTiter Glo-3D), NCI-H441; details: medium with 2% FBS, read-out: H441 AP IC50
Procedure, shortened: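 Five-day treatment of NCI-H441 or AsPC-1 cells (800/well, 2% FBS RPMI-1640, 0.1% DMSO) with graded compound concentrations; ATP content by CellTiter-Glo 3D; IC50 fitted.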

[2] = test system: p-ERK in AsPC-1 cells (KRAS G12D mutation); test: Cell p-ERK assay (HTRF) in AsPC-1 cells; details: AsPC-1 cells, 3 h compound incubation, HTRF p-ERK T202/Y204, read-out: AsPC-1 p-ERK IC50
Procedure, shortened: as §1

[3] = test system: AsPC-1 cells (KRAS G12D mutation); test: 3D cell proliferation assay (CellTiter Glo-3D), AsPC-1; details: medium with 2% FBS, read-out: AsPC-1 AP IC50
Excerpt: MIA PaCa-2 cells were purchased from ATCC, Cat. No. CRL-1420; AsPC-1 cells were purchased from ATCC, Cat. No. CRL-1682; NCI-H441 cells were purchased from ATCC, Cat. No. HTB-174: NCI-H1975 cells were purchased from ATCC. Cat. No. CRL-5908; DMEM medium was purchased from Gibco, Cat. No. 11995-065: RPMI-1040 medium was purchased from Gibco. Cat. No. H 18754093; FBS was purchased from Gibco, Cat. No. 10099-141C. penicillin, streptomycin double-antibiotic solution (PS) was purchased from Gibco, Cat. No. 15140-122; Horse serum was purchased from Gibco. Cat. No. 16050130: trypsin (containing EDTA) was purchased from Gibco, Cat. No. 25200-072; DMSO was purchased from VWRAMRESCO, Cat. No. 0231-500ML; 384-well cell culture plates were purchased from Corning, Cat. No. 3830; white-bottomed, opaque 384-well assay plates were purchased from Corning, Cat. No. 3570. CellTiter Glo-3D) kit was purchased from Promega. Cat. No. G9683; cell counter was purchased from CHEMOMETEC, model: NC-200: microplate reader was purchased from PerkinElmer, model: EnVision.
MIA PaCa-2, a human pancreatic cancer cell strain endogenously containing a KRAS^G12C mutation, was cultured in a complete medium containing DMEM+10% FBS+2.5% Horse serum+1% PS. AsPC-1, a human pancreatic cancer cell strain endogenously containing a […] mutation, was cultured in a complete medium containing RPMI-1640+10% FBS+1% PS. NCI-H441 cells, a human lung cancer cell strain endogenously containing a […] mutation, were cultured in a complete medium containing RPMI-1640+10% FBS+1% PS. NCI-H1975, a KRAS wild-type human lung cancer cell strain whose cell proliferation depends on KRAS activity, was cultured in a complete medium containing RPMI-1640+10% FBS+1% PS.
The cells were digested with trypsin (containing EDTA), collected in their respective low-serum complete media containing 2% FBS (for MIA Paca-2 cell culture: DMEM+2% FBS+0.5% Horse serum+1% PS), and counted. After the cell density was adjusted as required, 200 MIA PaCa-2 cells, 800 AsPC-1 cells, 800 NCI-H441 cells, or 400 NCI-H1975 cells per well were seeded into a 384-well cell culture plate, with the volume of the medium in each well being 45 μL. The cell culture plate was incubated in an incubator at 37° C. with 5% CO2, overnight. A series of 3.16-fold gradient dilutions of a 1000× compound stock solution were prepared with DMSO, and then diluted 100-fold with the complete medium containing 2% FBS described above to give 10- compound stock solutions. On the day after cell seeding, 5 μL of the 10- compound stock solution was added to each cell culture well. As a result, the final concentration of the compound in the cell culture well became 1×, and the DMSO content in the well was 0.1%. In addition to the compound-treated wells described above, cell-containing DMSO control wells (with 5 μL of the complete medium containing 1% DMSO added to each well) and cell-free medium control wells (containing 50 μL of the complete medium with 2% FBS) were also set. The culture plate was incubated in an incubator at 37° C. with 5% CO2 for another 5 days, and then 30 μL of CellTiter-Glo working solution was added to each well. The mixture was well mixed, incubated for 30 min, left to stand at room temperature for 30 min, and then transferred to a white-bottomed, opaque 384-well assay plate at 40 μL/well. The chemiluminescence values (RLU) were measured using a microplate reader, and the cell proliferation inhibition rate for each well was calculated: IR (%)=(RLUDMSO—RLUcompound)/(RLUDMSO−RLUblank)×100%, where RLUDMSO is the average RLU signal value from the DMSO control well samples, RLUblank is the average RLU signal value from the medium control well samples, and RLUcompound is the RLU signal value from the compound-treated well samples. […]

[4] = 3D cell proliferation (CellTiter Glo-3D)
[5] = Homo sapiens, NCI-H441, 3D cell proliferation (CellTiter Glo-3D)
[6] = Homo sapiens, ASPC1, 3D cell proliferation (CellTiter Glo-3D)

| SMILES | IC50 [1] | IC50 (NCI-H441 cells; [4]) | IC50 [2] | IC50 [3, 4] | IC50 ([1]; Homo sapiens, NCI-H441, 3 h) | IC50 (NCI-H441 cells; [5]) | IC50 ([2]; Homo sapiens, ASPC1, 3 h) | IC50 [3, 6] |
| --- | --- | --- | --- | --- | --- | --- | --- | --- |
| CCn1c(-c2cc(OCC3(N4CCCOCC4)CC3)cnc2[C@H](C)OC)c2c3cc(ccc31)-c1csc(n1)C[C@H](NC(=O)[C@H]1[C@H](C)[C@@H]1C)C(=O)N1CCC[C@H](N1)C(=O)OCC1(CC1)C2 (atropisomer, axis not shown; (Ra)) [Compound Z464, (1r,2R,3,S)—N-((3′S,4′S,Z)—(Ra)-2′-(5-((1-(1,4-oxazepan-4-yl)cyclopropyl)methoxy)-2-((S)-1-methoxyethyl)pyridin-3-yl)-1′-ethyl-5′,7′-dioxospiro[cyclopropane-1,10′-8-oxa-2(4,2)-thiazola-1(5,3)-indola-6(1,3)-pyridazinacycloundecaphan]-4′-yl)-2,3-dimethylcyclopropane-1-carboxamide] | 1.9 nM | 6.32 nM | 3.03 nM | 15 nM |  |  |  |  |
| CCn1c(-c2cc(CCN3CCS(=O)(=O)CC3)cnc2[C@H](C)OC)c2c3cc(ccc31)-c1csc(n1)C[C@H](NC(=O)[C@H]1[C@H](C)[C@@H]1C)C(=O)N1CCC[C@H](N1)C(=O)OCC(C)(C)C2 (atropisomer, axis not shown; (Ra)) [Compound Z485, (1r,2R,3S)—N-((6^3S,4S,Z)—(Ra)-1^2-(5-(2-(1,1-dioxidothiomorpholino)ethyl)-2-((S)-1-methoxyethyl)pyridin-3-yl)-11-ethyl-10,10-dimethyl-5,7-dioxo-6^1,6^2,6^3,6^4,6^5,6^6-hexahydro-1^1H-8-oxa-2(4,2)-thiazola-1(5,3)-indola-6(1,3)-pyridazinacycloundecaphane-4-yl)-2,3-dimethylcyclopropane-1-carboxamide] |  |  |  |  | 0.35 nM | 0.42 nM | 0.73 nM | 0.96 nM |
| CCn1c(-c2cc(C#CCN3CCCOCC3)c[n+]([O-])c2[C@H](C)O)c2c3cc(ccc31)-c1csc(n1)C[C@H](NC(=O)[C@H]1[C@H](C)[C@@H]1C)C(=O)N1CCC[C@H](N1)C(=O)OCC(C)(C)C2 (single isomer, unassigned) [Compound Z1039] |  |  |  |  | 0.51 nM | 1.21 nM | 0.95 nM | 1.28 nM |
| CCn1c(-c2cc([C@@H]3CCN4CCOC[C@@H]4C3)cnc2[C@H](C)OC)c2c3cc(ccc31)-c1csc(n1)C[C@H](NC(=O)[C@H]1[C@H](C)[C@@H]1C)C(=O)N1CCC[C@H](N1)C(=O)OCC1(CC1)C2 (single isomer, unassigned) [Compound Z77] |  |  |  |  | 7.48 nM | 4.94 nM | 13.9 nM | 17.4 nM |
| CCn1c(-c2cc(C#CCN3CCCNCC3)cnc2[C@H](C)OC)c2c3cc(ccc31)-c1csc(n1)C[C@H](NC(=O)[C@H]1[C@H](C)[C@@H]1C)C(=O)N1CCC[C@H](N1)C(=O)OCC(C)(C)C2 (atropisomer, axis not shown; (Ra)) [Compound Z951] |  |  |  |  | 0.5 nM | 0.43 nM | 0.42 nM | 0.36 nM |
| CCn1c(-c2cc(C#CCN3CCCOCC3)cnc2[C@H](C)OC)c2c3cc(ccc31)-c1csc(n1)C[C@H](NC(=O)C1[C@H]3COC[C@@H]13)C(=O)N1CCC[C@H](N1)C(=O)OCC(C)(C)C2 (atropisomer, axis not shown; (Ra)) [Compound Z1030] |  |  |  |  | 0.17 nM | 0.28 nM | 0.17 nM | 0.39 nM |
| CO[C@@H](C)c1ncc(OCCN2CCS(=O)(=O)CC2)cc1-c1c2c3cc(ccc3n1CC(F)(F)F)-c1csc(n1)C[C@H](NC(=O)[C@H]1C[C@@H]1C)C(=O)N1CCC[C@H](N1)C(=O)OCC(C)(C)C2 (atropisomer, axis not shown; (Ra)) [Compound Z677, (1S,2S)—N-((6^3S,4S,Z)—(Ra)-1^2-(5-(2-(1,1-dioxidothiomorpholino)ethoxy)-2-((S)-1-methoxyethyl)pyridin-3-yl)-10,10-dimethyl-5,7-dioxo-1^1-(2,2,2-trifluoroethyl)-6^1,6^2,6^3,6^4,6^5,6^6-hexahydro-1^1H-8-oxa-2(4,2)-thiazola-1(5,3)-indola-6(1,3)-pyridazinacycloundecaphane-4-yl)-2-methylcyclopropane-1-carboxamide] |  |  |  |  | 0.29 nM | 0.2 nM | 0.35 nM | 0.53 nM |
| CCn1c(-c2cc(C#CCN3CCN(C)CC3)cnc2[C@H](C)OC)c2c3cc(ccc31)-c1csc(n1)C[C@H](NC(=O)[C@H]1[C@H](C)[C@@H]1C)C(=O)N1CCC[C@H](N1)C(=O)OCC(C)(C)C2 (atropisomer, axis not shown; (Ra)) [Compound Z703] |  |  |  |  | 0.17 nM | 0.3 nM | 0.36 nM | 0.68 nM |
| CCn1c(-c2cc(N3CCC(N4CCS(=O)(=O)CC4)CC3)cnc2[C@H](C)OC)c2c3cc(ccc31)-c1csc(n1)C[C@H](NC(=O)[C@H]1[C@H](C)[C@@H]1C)C(=O)N1CCC[C@H](N1)C(=O)OCC(C)(C)C2 (atropisomer, axis not shown; (Ra)) [Compound Z855, (1r,2R,3S)—N-((6S,4S,Z)—(Ra)-1^2-(5-(4-(1,1-dioxidothiomorpholino)piperidin-1-yl)-2-((S)-1-methoxyethyl)pyridin-3-yl)-1^1-ethyl-10,10-dimethyl-5,7-dioxo-6^1,6^2,6^3,6^4,6^5,6^6-hexahydro-1^1H-8-oxa-2(4,2)-thiazola-1(5,3)-indola-6(1,3)-pyridazinacycloundecaphane-4-yl)-2,3-dimethylcyclopropane-1-carboxamide] |  |  |  |  | 0.17 nM | 0.16 nM | 0.29 nM | 0.22 nM |
